# According to the supplement of paper PMC11061612:
# How the values were obtained:
# Selumetinib = compound: Cn1cnc2c(F)c(Nc3ccc(Br)cc3Cl)c(C(=O)NOCCO)cc21 [Selumetinib]; settings: max 10 µM
# How it was run: (§1)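 Cancer cell lines in 1536-well plates (7.5 μl DMEM/F12 or RPMI, 10% FBS) were held 24 hours at 37°C and 5% CO2 and then dosed for 72 hours at a final DMSO of typically 0.2%. Viability was taken from CellTiter-Glo 2.0 luminescence, scaled between blank-well and DMSO-well means. Curves were fitted as two-parameter logistic models with a non-linear mixed effects model, from which the single-agent IC50 was taken.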
# Savolitinib = compound: C[C@@H](c1ccc2nccn2c1)n1nnc2ncc(-c3cnn(C)c3)nc21 [Savolitinib]; settings: max 1 µM
# How it was run: as §1
# Crizotinib = compound: C[C@@H](Oc1cc(-c2cnn(C3CCNCC3)c2)cnc1N)c1c(Cl)ccc(F)c1Cl [Crizotinib]; settings: max 10 µM
# How it was run: as §1
# Taselisib = compound: Cc1nc(-c2cn3c(n2)-c2ccc(-c4cnn(C(C)(C)C(N)=O)c4)cc2OCC3)n(C(C)C)n1 [Taselisib]; settings: max 10 µM
# How it was run: as §1
# Dasatinib = compound: CC1=C(C(=CC=C1)Cl)NC(=O)C2=CN=C(S2)NC3=CC(=NC(=N3)C)N4CCN(CC4)CCO [Dasatinib]; settings: max 2 µM
# How it was run: as §1
# SG3199 = compound: CC1=CN2[C@@H](C1)C=NC3=CC(=C(C=C3C2=O)OC)OCCCCCOC4=C(C=C5C(=C4)N=C[C@@H]6CC(=CN6C5=O)C)OC [SG3199]; settings: max 0.001 µM
# How it was run: as §1
# SRA737 = compound: N#Cc1cnc(Nc2cc(NC[C@H]3CNCCO3)c(C(F)(F)F)cn2)cn1 [SRA737]; settings: max 10 µM
# How it was run: as §1
# Olaparib = compound: O=C(c1cc(Cc2n[nH]c(=O)c3ccccc23)ccc1F)N1CCN(C(=O)C2CC2)CC1 [Olaparib]; settings: max 10 µM
# How it was run: as §1
# 5-Fluorouracil = compound: O=c1[nH]cc(F)c(=O)[nH]1 [5-Fluorouracil]; settings: max 20 µM
# How it was run: as §1
# Prexasertib = compound: COc1cccc(OCCCN)c1-c1cc(Nc2cnc(C#N)cn2)n[nH]1 [Prexasertib]; settings: max 1 µM
# How it was run: as §1
# AZD5363 = compound: C1CN(CCC1(C(=O)N[C@@H](CCO)C2=CC=C(C=C2)Cl)N)C3=NC=NC4=C3C=CN4 [AZD5363]; settings: max 10 µM
# How it was run: as §1
# AZD2811 = compound: CCN(CCO)CCCOc1ccc2c(Nc3cc(CC(=O)Nc4cccc(F)c4)[nH]n3)ncnc2c1 [AZD2811]; settings: max 1 µM
# How it was run: as §1
# Etoposide = compound: COc1cc([C@@H]2c3cc4c(cc3[C@@H](O[C@@H]3O[C@@H]5CO[C@@H](C)O[C@H]5[C@H](O)[C@H]3O)[C@H]3COC(=O)[C@H]23)OCO4)cc(OC)c1O [Etoposide]; settings: max 10 µM
# How it was run: as §1
# Palbociclib = compound: CC(=O)c1c(C)c2cnc(Nc3ccc(N4CCNCC4)cn3)nc2n(C2CCCC2)c1=O [Palbociclib]; settings: max 10 µM
# How it was run: as §1
# Trametinib = compound: CC(=O)Nc1cccc(-n2c(=O)n(C3CC3)c(=O)c3c(Nc4ccc(I)cc4F)n(C)c(=O)c(C)c32)c1 [Trametinib]; settings: max 1 µM
# How it was run: as §1
# Doxorubicin = compound: COc1cccc2c1C(=O)c1c(O)c3c(c(O)c1C2=O)C[C@@](O)(C(=O)CO)C[C@@H]3O[C@H]1C[C@H](N)[C@H](O)[C@H](C)O1 [Doxorubicin]; settings: max 1 µM
# How it was run: as §1
# MK-2206 = compound: NC1(c2ccc(-c3nc4ccn5c(=O)[nH]nc5c4cc3-c3ccccc3)cc2)CCC1 [MK-2206]; settings: max 10 µM
# How it was run: as §1
# AZD6738 = compound: C[C@@H]1COCCN1C2=NC(=NC(=C2)C3(CC3)[S@](=N)(=O)C)C4=C5C=CNC5=NC=C4 [AZD6738]; settings: max 10 µM
# How it was run: as §1
# Gefitinib = compound: COc1cc2ncnc(Nc3ccc(F)c(Cl)c3)c2cc1OCCCN1CCOCC1 [Gefitinib]; settings: max 10 µM
# How it was run: as §1
# Alisertib = compound: COc1cc(Nc2ncc3c(n2)-c2ccc(Cl)cc2C(c2c(F)cccc2OC)=NC3)ccc1C(=O)O [Alisertib]; settings: max 10 µM
# How it was run: as §1
# AZD8186 = compound: C[C@@H](Nc1cc(F)cc(F)c1)c1cc(C(=O)N(C)C)cc2c(=O)cc(N3CCOCC3)oc12 [AZD8186]; settings: max 10 µM
# How it was run: as §1
# Lapatinib = compound: CS(=O)(=O)CCNCc1ccc(-c2ccc3ncnc(Nc4ccc(OCc5cccc(F)c5)c(Cl)c4)c3c2)o1 [Lapatinib]; settings: max 10 µM
# How it was run: as §1
# AZD5153 = compound: COc1nnc2ccc(N3CCC(c4ccc(OCCN5CCN(C)C(=O)[C@H]5C)cc4)CC3)nn12 [AZD5153]; settings: max 1 µM
# How it was run: as §1
# AZD1775 = compound: C=CCn1c(=O)c2cnc(Nc3ccc(N4CCN(C)CC4)cc3)nc2n1-c1cccc(C(C)(C)O)n1 [AZD1775]; settings: max 3 µM
# How it was run: as §1
# Carboplatin = compound: C1CC(C1)(C(=O)[O-])C(=O)[O-].N.N.[Pt+2] [Carboplatin]; settings: max 10 µM
# How it was run: as §1
# AZD0156 = compound: CN(C)CCCOc1ccc(-c2ccc3ncc4c(c3c2)n(C2CCOCC2)c(=O)n4C)cn1 [AZD0156]; settings: max 3 µM
# How it was run: as §1
# AZD7648 = compound: Cc1cc2ncnn2cc1Nc1ncc2c(n1)n(C1CCOCC1)c(=O)n2C [AZD7648]; settings: max 10 µM
# How it was run: as §1
# AZD5991 = compound: Cc1c2c(nn1C)CSCc1cc(n(C)n1)CSc1cc(c3ccccc3c1)OCCCc1c(C(=O)O)n(C)c3c-2c(Cl)ccc13 [AZD5991]; settings: max 1 µM
# How it was run: as §1
# AZD4320 = compound: CN(CC[C@H](CSC1=CC=CC=C1)NC2=C(C=C(C=C2)S(=O)(=O)NC(=O)C3=CC=C(C=C3)N4CCC(CC4)[C@H](C5=CC=CC=C5C6=CC=C(C=C6)Cl)O)S(=O)(=O)C(F)(F)F)CCO [AZD4320]; settings: max 1 µM
# How it was run: as §1
# Gemcitabine = compound: Nc1ccn([C@@H]2O[C@H](CO)[C@@H](O)C2(F)F)c(=O)n1 [Gemcitabine]; settings: max 0.3 µM
# How it was run: as §1
# [1] = compound: O=C(Nc1ccc2[nH]nc(-c3ccncc3)c2c1)[C@@H]1CCN(CC(=O)N2CCN(c3ccc(-c4ncccn4)cc3)CC2)C1; settings: max 5 µM
# How it was run: as §1
# Paclitaxel = compound: CC(=O)O[C@H]1C(=O)[C@@]2(C)[C@H]([C@H](OC(=O)c3ccccc3)[C@]3(O)C[C@H](OC(=O)[C@H](O)[C@@H](NC(=O)c4ccccc4)c4ccccc4)C(C)=C1C3(C)C)[C@]1(OC(C)=O)CO[C@@H]1C[C@@H]2O [Paclitaxel]; settings: max 3 µM
# How it was run: as §1
# Venetoclax = compound: CC1(C)CCC(CN2CCN(c3ccc(C(=O)NS(=O)(=O)c4ccc(NCC5CCOCC5)c([N+](=O)[O-])c4)c(Oc4cnc5[nH]ccc5c4)c3)CC2)=C(c2ccc(Cl)cc2)C1 [Venetoclax]; settings: max 1 µM
# How it was run: as §1
# SN-38 = compound: CCc1c2c(nc3ccc(O)cc13)-c1cc3c(c(=O)n1C2)COC(=O)[C@]3(O)CC [SN-38]; settings: max 0.3 µM
# How it was run: as §1
# AZD1390 = compound: CC(C)n1c(=O)n(C)c2cnc3cc(F)c(-c4ccc(OCCCN5CCCCC5)nc4)cc3c21 [AZD1390]; settings: max 0.3 µM
# How it was run: as §1
Cell Line,"IC50, cell viability 72 h (Selumetinib) [nM]","IC50, cell viability 72 h (Savolitinib) [nM]","IC50, cell viability 72 h (Crizotinib) [nM]","IC50, cell viability 72 h (Taselisib) [nM]","IC50, cell viability 72 h (Dasatinib) [nM]","IC50, cell viability 72 h (SG3199) [nM]","IC50, cell viability 72 h (SRA737) [nM]","IC50, cell viability 72 h (Olaparib) [nM]","IC50, cell viability 72 h (5-Fluorouracil) [nM]","IC50, cell viability 72 h (Prexasertib) [nM]","IC50, cell viability 72 h (AZD5363) [nM]","IC50, cell viability 72 h (AZD2811) [nM]","IC50, cell viability 72 h (Etoposide) [nM]","IC50, cell viability 72 h (Palbociclib) [nM]","IC50, cell viability 72 h (Trametinib) [nM]","IC50, cell viability 72 h (Doxorubicin) [nM]","IC50, cell viability 72 h (MK-2206) [nM]","IC50, cell viability 72 h (AZD6738) [nM]","IC50, cell viability 72 h (Gefitinib) [nM]","IC50, cell viability 72 h (Alisertib) [nM]","IC50, cell viability 72 h (AZD8186) [nM]","IC50, cell viability 72 h (Lapatinib) [nM]","IC50, cell viability 72 h (AZD5153) [nM]","IC50, cell viability 72 h (AZD1775) [nM]","IC50, cell viability 72 h (Carboplatin) [nM]","IC50, cell viability 72 h (AZD0156) [nM]","IC50, cell viability 72 h (AZD7648) [nM]","IC50, cell viability 72 h (AZD5991) [nM]","IC50, cell viability 72 h (AZD4320) [nM]","IC50, cell viability 72 h (Gemcitabine) [nM]","IC50, cell viability 72 h [1] [nM]","IC50, cell viability 72 h (Paclitaxel) [nM]","IC50, cell viability 72 h (Venetoclax) [nM]","IC50, cell viability 72 h (SN-38) [nM]","IC50, cell viability 72 h (AZD1390) [nM]"
NCI-H28 (Mesothelioma),> 10000,> 1000,> 10000,> 10000,304,> 1,> 10000,> 10000,> 20000,327,> 10000,> 1000,> 10000,> 10000,> 1000,> 1000,> 10000,> 10000,> 10000,> 10000,> 10000,> 10000,> 1000,> 3000,> 10000,> 3000,> 10000,> 1000,> 1000,140,> 5000,825,> 1000,> 300,> 300
NCI-H69 (Small Cell Lung Carcinoma),> 10000,> 1000,5700,546,> 2000,> 1,> 10000,> 10000,> 20000,> 1000,> 10000,342,> 10000,> 10000,> 1000,> 1000,4550,> 10000,> 10000,1110,> 10000,> 10000,> 1000,2370,> 10000,> 3000,> 10000,> 1000,59.5,> 300,> 5000,4.64,> 1000,123,> 300
NCI-H2461 (Mesothelioma),> 10000,> 1000,> 10000,6270,> 2000,> 1,> 10000,> 10000,> 20000,48.2,> 10000,> 1000,> 10000,> 10000,> 1000,379,> 10000,4160,> 10000,> 10000,> 10000,> 10000,> 1000,630,> 10000,> 3000,> 10000,> 1000,> 1000,> 300,> 5000,735,> 1000,91.8,> 300
NCI-H2795 (Mesothelioma),3140,> 1000,7780,4730,578,> 1,> 10000,> 10000,19600,146,> 10000,> 1000,3820,> 10000,38.4,715,> 10000,9010,> 10000,1300,> 10000,> 10000,840,> 3000,> 10000,> 3000,> 10000,974,> 1000,25.8,658,85.3,> 1000,16.9,> 300
OC-314 (Ovarian Carcinoma),> 10000,> 1000,> 10000,1600,205,> 1,> 10000,> 10000,17800,39.4,> 10000,> 1000,876,> 10000,> 1000,63.9,> 10000,2610,> 10000,6230,7390,> 10000,70.9,671,> 10000,> 3000,> 10000,> 1000,> 1000,34.4,> 5000,5.9,> 1000,8.72,> 300
PCI-30 (Head and Neck Carcinoma),> 10000,> 1000,> 10000,> 10000,> 2000,> 1,> 10000,> 10000,> 20000,74,> 10000,> 1000,> 10000,> 10000,> 1000,> 1000,> 10000,> 10000,> 10000,> 10000,> 10000,> 10000,> 1000,> 3000,> 10000,> 3000,> 10000,> 1000,> 1000,> 300,> 5000,> 3000,> 1000,110,> 300
